The results in this text go back to US11117898B2, “Pyrazolo-heteroaryl derivative, preparation method and medical use thereof” (Jiangsu Hengrui Medicine Co., Ltd., priority 2016, dated 2021).

One data set concerns the target human TLR7 (Homo sapiens (Human), UniProt Q9NYK1). Description: Agonistic activity on human TLR7 in HEK-Blue hTLR7 stably transfected cells. The class given is cell-based. As to conditions: for EC50: OD 620 nm. Here is the method:
The activation effect of the compounds of the present invention on the hTLR7 protein expressed by the HEK-Blue™ hTLR7 stably transfected cells was determined by the following experimental method:
A bag of HEK-Blue detection dry powder was dissolved in 50 ml of water free of endotoxin, and the solution was then placed in an incubator at 37° C. for 10 minutes followed by sterile filtration to prepare a HEK-Blue detection medium. The compound was firstly formulated into a 20 mM stock solution, then diluted with pure DMSO to a maximum concentration of 6×10^6 nM, and a total of 10 points were obtained by a 3-fold gradient dilution.
The above formulated compound was firstly diluted 20-fold with the medium, then 20 μl of the diluted compound were added to each well. The supernate was removed from the HEK-Blue™ hTLR7 cells, to which 2-5 ml of pre-warmed PBS were then added. The cells were placed in an incubator for 1-2 minutes, gently pipetted, and counted by trypan blue staining. The cells were re-suspended in the HEK-Blue detection medium to adjust the concentration to 2.2×10^5 cells/ml. 180 μl of cells were added to the above 96-well plate already added with 20 μl of the compounds, and incubated at 37° C. for 6-16 hours.
The activation effect of the compounds of the present invention on human TLR7 can be determined by the above test, and the obtained EC50 values are shown in Table 1.

In another data set the target is human TLR8 (Homo sapiens (Human), UniProt Q9NR97). The experiment in a line: Agonistic activity on human TLR8 in HEK-Blue hTLR8 stably transfected cells. The class given is cell-based. As to conditions: for EC50: OD 620 nm. How it is done:
The activation effect of the compounds of the present invention on the hTLR8 protein expressed by the HEK-Blue™ hTLR8 stably transfected cells was determined by the following experimental method:
A bag of HEK-Blue detection dry powder was dissolved in 50 ml of water free of endotoxin, and the solution was then placed in an incubator at 37° C. for 10 minutes followed by sterile filtration to prepare a HEK-Blue detection medium. The compound was firstly formulated into a 20 mM stock solution, then diluted with pure DMSO to a maximum concentration of 6×10^6 nM, and a total of 10 points were obtained by a 3-fold gradient dilution. The compound was firstly diluted 20-fold with the medium, then 20 μl of the diluted compound were added to each well.
The supernate was removed from the HEK-Blue™ hTLR8 cells, to which 2-5 ml of pre-warmed PBS were then added. The cells were placed in an incubator for 1-2 minutes, gently pipetted, and counted by trypan blue staining. The cells were re-suspended in the HEK-Blue detection medium to adjust the concentration to 2.2×10^5 cells/ml. 180 μl of cells were added to the above 96-well plate already added with 20 μl of the compounds, and incubated at 37° C. for 6-16 hours.
The activation effect of the compounds of the present invention on human TLR8 can be determined by the above test, and the obtained EC50 values are shown in Table 2.

Data set [1] concerns the target T1, CYP3A4 (Homo sapiens (Human), UniProt P08684). Description: Inhibition of the testosterone metabolite site of CYP3A4 in human liver microsomes. The format is in vitro ADME. As to conditions: probe substrate testosterone. Here is the method: The effect of the compounds of the present invention on the enzyme activity of testosterone metabolite site of CYP3A4 in human liver microsomes was determined by the following experimental method:
(§1) 100 mM PBS buffer was formulated, which was then used to formulate 2.5 mg/ml microsome solution and 5 mM NADPH solution. The 5× concentration of the compound working solution was diluted with PBS gradient (150, 50, 15, 5, 1.5, 0.15, 0.015, 0 μM). The 5× concentration of ketoconazole working solution was diluted with PBS gradient (150, 50, 15, 5, 1.5, 0.15, 0.015, 0 μM). Dextromethorphan working solution was diluted with PBS to a concentration of 50 μM.
(§2) 20 μl of 2.5 mg/ml microsome solution, 20 μl of 50 μM testosterone working solution, 20 μl of MgCl2 solution and 20 μl of the compound working solution (150, 50, 15, 5, 1.5, 0.15, 0.015, 0 μM, different reaction systems for each concentration) were taken respectively and mixed well. For the positive control group, the compound was replaced with the same concentration of ketoconazole. The mixture together with 5 mM NADPH solution were pre-incubated at 37° C. for 5 minutes. After 5 minutes, 20 μl of NADPH were added to each well, the reaction was started and incubated for 30 minutes. All the incubated samples were present in duplicate. After 30 minutes, 250 μl of acetonitrile containing internal standard were added to all samples, mixed well, shaken at 800 rpm for 10 minutes, and then centrifuged at 3700 rpm for 10 minutes. 80 μl of the supernatant were taken and analyzed by LC-MS/MS.
The data were calculated by Graphpad Prism to obtain the IC50 values of the compounds on the testosterone metabolite site of CYP3A4.

The target of another data set is CYP2D6 (Homo sapiens (Human), UniProt P10635). The experiment in a line: Inhibition of the enzyme activity of CYP2D6 in human liver microsomes. The format is in vitro ADME. As to conditions: probe substrate dextromethorphan. Here is the method: The effect of the compounds of the present invention on the enzyme activity of CYP2D6 in human liver microsomes was determined by the following experimental method:
100 mM PBS buffer was formulated, which was then used to formulate 2.5 mg/ml microsome solution and 5 mM NADPH solution. The 5× concentration of the compound working solution was diluted with PBS gradient (150, 50, 15, 5, 1.5, 0.15, 0.015, 0 μM). The 5× concentration of quinidine working solution was diluted with PBS gradient (150, 50, 15, 5, 1.5, 0.15, 0.015, 0 μM). Dextromethorphan working solution was diluted with PBS to a concentration of 50 μM.
as §2, with “quinidine.” for “ketoconazole.”
The data were calculated by Graphpad Prism to obtain the IC50 values of the compounds on the metabolite site of CYP2D6.
On the technique in general: Microsomes from liver hold many membrane-bound enzymes, among them those of drug oxidation.

Data set [2] deals with T1, CYP3A4. The experiment in a line: Inhibition of the midazolam metabolite site of CYP3A4 in human liver microsomes. The class given is in vitro ADME. As to conditions: probe substrate midazolam. How it is done: The effect of the compounds of the present invention on the enzyme activity of midazolam metabolite site of CYP3A4 in human liver microsomes was determined by the following experimental method:
as §1, §2
The data were calculated by Graphpad Prism to obtain the IC50 values of the compounds on the midazolam metabolite site of CYP3A4.

For another data set, the system named is PBMC. The experiment in a line: Stimulation of the secretion of IFN-α from peripheral blood mononuclear cells (PBMC). The class given is cell-based, human. To be noted: minimal effective concentration: lowest concentration giving cytokine level at least 3 times the minimum detection limit; 24 hours incubation. Here is the method:
The ability of the compounds of the present invention to stimulate the secretion of IFN-α from PBMC was determined by the following experimental method:
The compound was diluted with pure DMSO to a maximum concentration of 5 mM, and a total of 9 points were obtained by a 4-fold gradient dilution. 4 μl of the compound were then added to 196 μl of RMPI 1640 medium containing 10% FBS and mixed well. 50 μl of the mixture were taken from each well and added to a new 96-well plate.
All reagents were equilibrated to room temperature. 60 ml of blood and PBS+2% FBS were added to a 250 ml culture flask, gently pipetted, mixed well and diluted. 15 ml of lymphocyte separation solution Ficoll-Paque PREMIUM and then 30 ml of diluted blood were added to a 50 ml PBMC centrifuge tube SepMate™-50. The mixture was centrifuged at 1200 g for 10 minutes at room temperature. The supernatant was taken and then centrifuged at 300 g for 8 minutes. The cells were re-suspended in the RMPI 1640 medium containing 10% FBS and counted, and the number of PBMCs was adjusted to 3.33×10^6 cells/ml. 150 μl of the cell solution were added to the plate added with the compound, and incubated in an incubator at 37° C., in 5.0% CO2 for 24 hours.
The cell culture plate was placed in a centrifuge, and centrifuged at 1200 rpm for 10 minutes at room temperature. 150 μl of the supernatant were taken from each well. The reagents in the human IFN-α kit were first equilibrated to normal temperature. The anti-IFN-α-Eu^3+-Cryptate conjugate and the anti-IFN-α-d2-conjugate were formulated in the dark according to the kit instructions, and both of them were mixed well with the conjugate buffer at a ratio of 1:40. 16 μl of the supernatant obtained by centrifugation were then added to each well. 2 μl of anti-IFN-α-Eu^3+-Cryptate conjugate and anti-IFN-α-d2-conjugate formulated just now were then added to each well. The plate was shaken and mixed well, and incubated in the dark at room temperature for 3 hours.
The PHERAStar was read in the HTRF mode. The lowest compound concentration that stimulated cytokine levels of at least 3 times higher than the minimum detection limit was defined as the minimal effective concentration (MEC) value of the compound in the cytokine stimulation test.
The ability of the compounds of the present invention to stimulate the secretion of IFN-α from PBMC was determined by the above test, and the obtained MEC values are shown in Table 3.

T1 sequence (P08684 whole entry): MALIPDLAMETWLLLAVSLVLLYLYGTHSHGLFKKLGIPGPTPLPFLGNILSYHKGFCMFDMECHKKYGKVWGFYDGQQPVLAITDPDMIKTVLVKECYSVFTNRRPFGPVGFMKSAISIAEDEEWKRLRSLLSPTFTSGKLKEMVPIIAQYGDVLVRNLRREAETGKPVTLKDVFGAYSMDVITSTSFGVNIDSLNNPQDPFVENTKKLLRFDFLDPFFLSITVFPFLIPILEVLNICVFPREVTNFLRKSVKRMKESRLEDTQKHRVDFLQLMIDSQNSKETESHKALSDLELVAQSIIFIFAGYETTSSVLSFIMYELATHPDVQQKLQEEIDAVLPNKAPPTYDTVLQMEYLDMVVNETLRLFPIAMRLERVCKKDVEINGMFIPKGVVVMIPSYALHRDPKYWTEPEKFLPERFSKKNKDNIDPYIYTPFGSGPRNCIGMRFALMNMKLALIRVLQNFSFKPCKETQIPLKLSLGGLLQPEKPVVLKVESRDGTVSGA
Sequence of human TLR8 (Q9NR97 27-1041): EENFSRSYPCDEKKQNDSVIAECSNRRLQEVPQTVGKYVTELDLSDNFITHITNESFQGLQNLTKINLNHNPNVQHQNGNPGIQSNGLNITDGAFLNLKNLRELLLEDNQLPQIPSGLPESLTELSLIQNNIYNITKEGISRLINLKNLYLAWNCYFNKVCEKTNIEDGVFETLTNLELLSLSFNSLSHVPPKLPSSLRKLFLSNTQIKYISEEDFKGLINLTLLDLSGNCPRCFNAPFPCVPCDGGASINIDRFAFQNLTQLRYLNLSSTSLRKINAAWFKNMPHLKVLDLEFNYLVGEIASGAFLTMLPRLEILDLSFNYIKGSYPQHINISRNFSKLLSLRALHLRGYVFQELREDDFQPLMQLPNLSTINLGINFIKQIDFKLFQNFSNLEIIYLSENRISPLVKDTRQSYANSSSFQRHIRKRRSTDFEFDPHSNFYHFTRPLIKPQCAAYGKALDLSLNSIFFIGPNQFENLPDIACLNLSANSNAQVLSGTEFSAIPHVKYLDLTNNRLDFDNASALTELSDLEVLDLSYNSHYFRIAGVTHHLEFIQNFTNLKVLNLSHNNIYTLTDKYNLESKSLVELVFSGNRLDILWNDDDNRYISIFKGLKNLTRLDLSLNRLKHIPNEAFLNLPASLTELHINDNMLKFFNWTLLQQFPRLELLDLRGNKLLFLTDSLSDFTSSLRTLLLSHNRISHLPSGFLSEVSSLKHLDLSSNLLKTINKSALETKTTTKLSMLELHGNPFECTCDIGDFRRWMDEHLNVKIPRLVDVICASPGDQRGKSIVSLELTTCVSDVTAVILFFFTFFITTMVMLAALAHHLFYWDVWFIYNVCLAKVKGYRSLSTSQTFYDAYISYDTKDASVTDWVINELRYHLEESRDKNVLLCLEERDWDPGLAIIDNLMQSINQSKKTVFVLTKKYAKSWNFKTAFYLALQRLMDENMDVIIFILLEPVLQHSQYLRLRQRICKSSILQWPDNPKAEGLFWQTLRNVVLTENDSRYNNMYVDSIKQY
Sequence of CYP2D6 (P10635 whole entry): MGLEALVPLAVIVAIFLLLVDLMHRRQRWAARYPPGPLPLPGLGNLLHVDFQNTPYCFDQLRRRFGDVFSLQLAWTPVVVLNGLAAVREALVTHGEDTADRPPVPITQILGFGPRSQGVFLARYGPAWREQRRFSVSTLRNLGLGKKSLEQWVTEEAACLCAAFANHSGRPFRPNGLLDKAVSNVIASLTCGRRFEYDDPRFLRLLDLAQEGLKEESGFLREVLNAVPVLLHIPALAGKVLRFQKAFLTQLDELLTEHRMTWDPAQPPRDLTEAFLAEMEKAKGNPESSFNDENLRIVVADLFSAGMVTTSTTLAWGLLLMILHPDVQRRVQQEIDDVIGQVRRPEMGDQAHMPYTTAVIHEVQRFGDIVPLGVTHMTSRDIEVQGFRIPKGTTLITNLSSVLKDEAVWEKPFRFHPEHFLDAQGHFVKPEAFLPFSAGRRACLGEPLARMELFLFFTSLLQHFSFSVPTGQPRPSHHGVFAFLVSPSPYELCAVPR
Sequence of human TLR7 (Q9NYK1 27-1049): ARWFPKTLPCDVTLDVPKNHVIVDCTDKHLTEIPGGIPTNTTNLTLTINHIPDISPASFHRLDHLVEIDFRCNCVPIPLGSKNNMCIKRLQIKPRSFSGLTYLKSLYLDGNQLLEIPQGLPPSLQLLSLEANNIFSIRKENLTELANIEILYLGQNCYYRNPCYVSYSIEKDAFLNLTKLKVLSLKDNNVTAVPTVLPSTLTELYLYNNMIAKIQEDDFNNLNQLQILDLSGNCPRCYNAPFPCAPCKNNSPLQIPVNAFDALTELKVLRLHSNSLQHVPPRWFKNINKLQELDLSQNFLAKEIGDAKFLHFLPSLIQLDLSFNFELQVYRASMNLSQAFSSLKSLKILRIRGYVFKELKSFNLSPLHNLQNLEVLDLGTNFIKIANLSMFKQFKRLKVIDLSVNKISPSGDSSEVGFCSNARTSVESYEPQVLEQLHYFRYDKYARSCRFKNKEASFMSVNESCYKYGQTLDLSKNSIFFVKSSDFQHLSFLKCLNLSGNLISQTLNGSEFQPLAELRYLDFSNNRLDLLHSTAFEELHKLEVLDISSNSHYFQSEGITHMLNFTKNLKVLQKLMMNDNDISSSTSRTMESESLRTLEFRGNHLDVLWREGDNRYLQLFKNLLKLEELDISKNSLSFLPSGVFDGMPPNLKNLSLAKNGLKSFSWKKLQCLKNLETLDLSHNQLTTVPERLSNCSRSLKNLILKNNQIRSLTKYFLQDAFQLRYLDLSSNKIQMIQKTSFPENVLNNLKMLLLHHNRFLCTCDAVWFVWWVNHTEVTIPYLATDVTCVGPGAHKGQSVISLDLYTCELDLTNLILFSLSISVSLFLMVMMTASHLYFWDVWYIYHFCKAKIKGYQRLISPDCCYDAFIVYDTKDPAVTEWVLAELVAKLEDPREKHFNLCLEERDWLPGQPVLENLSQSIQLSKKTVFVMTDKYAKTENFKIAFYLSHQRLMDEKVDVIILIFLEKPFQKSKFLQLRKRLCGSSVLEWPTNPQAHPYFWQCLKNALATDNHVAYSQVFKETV

Turning to `CCCCOc1nc(N)c2cnn(Cc3ccc(CN4CCCC4)c(F)c3)c2n1` [Example 9, 6-Butoxy-1-(3-fluoro-4-(pyrrolidin-1-ylmethyl)benzyl)-1H-pyrazolo[3,4-d]pyrimidin-4-amine], on human TLR7, the maximal response (Emax) (commonly the greatest response seen or fitted, relative to the assay's reference) was found to be 96% and a half-maximal effect (EC50) was put at 0.128 µM.
On to `CCCCC(=O)c1nc(N)c2cnn(Cc3ccc(CN4CCCC4)cc3)c2n1` [Example 12], for which the maximal effect (Emax) on human TLR7 was found to be 78%; at human TLR8, 5%. Also, the concentration for a half-maximal effect (EC50) (commonly the midpoint of the concentration-response curve) is 0.388 µM at human TLR7 and greater than 30 µM on human TLR8. The IC50 – broadly, the concentration that gives 50% inhibition – on CYP3A4 [1] was greater than 30 µM; against CYP2D6 it was 16 µM; at CYP3A4 [2], 16 µM.
`CCCCNc1nc(N)c2cnn(Cc3ccc(CN4CCCC4)cc3)c2n1` [Example 10, N^6-Butyl-1-(4-(pyrrolidin-1-ylmethyl)benzyl)-1H-pyrazolo[3,4-d]pyrimidine-4,6-diamine]: at human TLR7, the Emax amounted to 79% and the 50% effective concentration (EC50) was 0.349 µM. In addition, on human TLR8, the Emax stood at 0% and the EC50 is greater than 30 µM.
On to `CCCCOc1nc(N)c2cnn(Cc3cccc(CN4CCC4)c3)c2n1` [Example 5, 1-(3-(Azetidin-1-ylmethyl)benzyl)-6-butoxy-1H-pyrazolo[3,4-d]pyrimidin-4-amine], for which the “MEC to stimulate the secretion of IFN-α from PBMC” value in the data set with PBMC turned out to be 41 nM.
Regarding `CCCNC(=O)c1nc(N)c2cnn(Cc3ccc(CN4CCCC4)cc3)c2n1` [Example 11, 4-Amino-N-propyl-1-(4-(pyrrolidin-1-ylmethyl)benzyl)-1H-pyrazolo[3,4-d]pyrimidine-6-carboxamide], the values for the Emax at human TLR7 and at human TLR8 were 85% and 0%, respectively. Moreover, the EC50 at human TLR7 was 0.335 µM; on human TLR8, greater than 30 µM.
In the same order, the values of `COCC(C)Oc1nc(N)c2cnn(Cc3ccc(CN4CCCC4)cc3)c2n1` (stereo not shown) [Example 8, 6-((1-Methoxypropan-2-yl)oxy)-1-(4-(pyrrolidin-1-ylmethyl)benzyl)-1H-pyrazolo[3,4-d]pyrimidin-4-amine] are 104%, 2%, 0.217 µM and greater than 30 µM.
As to `CCCCOc1nc(N)c2cnn(Cc3cccc(CN4CCCCC4)c3)c2n1` [Example 6, 6-Butoxy-1-(3-(piperidin-1-ylmethyl)benzyl)-1H-pyrazolo[3,4-d]pyrimidin-4-amine], the maximal effect (Emax) came to 91% at human TLR7 and 35% at human TLR8. Besides, the results for the concentration for a half-maximal effect (EC50) at human TLR7 and on human TLR8 were 0.233 µM and greater than 6 µM, respectively. The IC50 on CYP3A4 [1] was 3 µM; against CYP2D6, 10 µM; at CYP3A4 [2], 10 µM.
With `CCCCOc1nc(N)c2cnn(Cc3ccc(CN4CCCC4)cc3)c2n1` [Example 1, 6-Butoxy-1-(4-(pyrrolidin-1-ylmethyl)benzyl)-1H-pyrazolo[3,4-d]pyrimidin-4-amine], in the data set on PBMC, the “MEC to stimulate the secretion of IFN-α from PBMC” value is 6 nM. This compound gave a maximal effect (Emax) at human TLR7 of 100%. For the same compound, at human TLR8, the Emax was 8% and the EC50 is greater than 30 µM. Moreover, the concentration for half-maximal inhibition (IC50) against CYP2D6 is greater than 30 µM.
